Measured values taken from publication PMC4979471 (Cell Death Discovery, 2015).
Read-outs that look alike come from different tables or passages of the source.

Experiments:
Test in all cases: Kinase selectivity, P33-radiolabeled assay
Type in all cases: biochemical
Details in all cases: 10 μM ATP
[1] = molecular target: T1, RET (Homo sapiens, UniProt P07949)
T1 construct: purchased Reaction Biology Corp
Summary of the method: (§1)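 Each enzyme was exposed to 10 μM compound, with duplicate measurements, in reactions containing 10 μM ATP. Numbers are remaining activity as a percent of the vehicle (DMSO) signal.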

[2] = molecular target: T2, CK1g1 (Homo sapiens, UniProt Q9HCP0)
T2 construct: purchased Reaction Biology Corp
Summary of the method: as §1

[3] = molecular target: T3, P38d/MAPK13 (Homo sapiens, UniProt O15264)
T3 construct: purchased Reaction Biology Corp
T3 sequence (O15264 1-365): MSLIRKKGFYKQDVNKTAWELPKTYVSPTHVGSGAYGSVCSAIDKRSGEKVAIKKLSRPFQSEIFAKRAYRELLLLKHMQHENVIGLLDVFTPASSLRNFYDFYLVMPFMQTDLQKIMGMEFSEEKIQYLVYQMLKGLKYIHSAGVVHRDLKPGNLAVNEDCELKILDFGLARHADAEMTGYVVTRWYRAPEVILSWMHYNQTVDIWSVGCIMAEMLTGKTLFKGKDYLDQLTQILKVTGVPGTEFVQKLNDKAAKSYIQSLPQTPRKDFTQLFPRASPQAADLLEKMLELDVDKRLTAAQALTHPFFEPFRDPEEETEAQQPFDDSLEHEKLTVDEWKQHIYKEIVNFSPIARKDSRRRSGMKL
Summary of the method: as §1

[4] = molecular target: T4, CK2a (Homo sapiens, UniProt P68400)
T4 construct: purchased Reaction Biology Corp
Summary of the method: as §1

[5] = molecular target: T5, PRKX (Homo sapiens, UniProt P51817)
T5 construct: purchased Reaction Biology Corp
T5 sequence (P51817 1-358): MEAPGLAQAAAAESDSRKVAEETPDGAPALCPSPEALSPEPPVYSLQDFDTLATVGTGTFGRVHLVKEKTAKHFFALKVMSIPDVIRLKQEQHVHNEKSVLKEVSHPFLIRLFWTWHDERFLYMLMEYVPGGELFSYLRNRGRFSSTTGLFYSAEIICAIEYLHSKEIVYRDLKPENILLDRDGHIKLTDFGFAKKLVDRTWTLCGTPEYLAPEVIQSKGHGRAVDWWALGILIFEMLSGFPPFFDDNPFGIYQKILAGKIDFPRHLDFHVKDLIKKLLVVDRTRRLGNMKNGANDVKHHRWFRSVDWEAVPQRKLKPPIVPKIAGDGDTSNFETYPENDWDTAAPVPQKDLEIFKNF
Summary of the method: as §1

[6] = molecular target: T6, DRAK1/STK17A (Homo sapiens, UniProt Q9UEE5)
T6 construct: purchased Reaction Biology Corp
T6 sequence (Q9UEE5 1-414): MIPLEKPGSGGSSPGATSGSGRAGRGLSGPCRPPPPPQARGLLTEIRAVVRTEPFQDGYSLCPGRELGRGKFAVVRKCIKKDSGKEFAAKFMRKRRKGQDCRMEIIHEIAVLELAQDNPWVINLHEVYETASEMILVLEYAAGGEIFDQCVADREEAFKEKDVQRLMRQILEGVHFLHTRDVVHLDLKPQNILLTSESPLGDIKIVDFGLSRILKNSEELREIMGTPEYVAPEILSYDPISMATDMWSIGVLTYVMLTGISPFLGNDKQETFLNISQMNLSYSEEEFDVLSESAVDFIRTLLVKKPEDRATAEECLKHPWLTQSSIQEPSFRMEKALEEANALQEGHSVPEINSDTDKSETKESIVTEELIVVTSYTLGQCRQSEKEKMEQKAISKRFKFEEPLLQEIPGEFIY
Summary of the method: as §1

[7] = molecular target: T7, TBK1 (Homo sapiens, UniProt Q9UHD2)
T7 construct: purchased Reaction Biology Corp
T7 sequence (Q9UHD2 1-729): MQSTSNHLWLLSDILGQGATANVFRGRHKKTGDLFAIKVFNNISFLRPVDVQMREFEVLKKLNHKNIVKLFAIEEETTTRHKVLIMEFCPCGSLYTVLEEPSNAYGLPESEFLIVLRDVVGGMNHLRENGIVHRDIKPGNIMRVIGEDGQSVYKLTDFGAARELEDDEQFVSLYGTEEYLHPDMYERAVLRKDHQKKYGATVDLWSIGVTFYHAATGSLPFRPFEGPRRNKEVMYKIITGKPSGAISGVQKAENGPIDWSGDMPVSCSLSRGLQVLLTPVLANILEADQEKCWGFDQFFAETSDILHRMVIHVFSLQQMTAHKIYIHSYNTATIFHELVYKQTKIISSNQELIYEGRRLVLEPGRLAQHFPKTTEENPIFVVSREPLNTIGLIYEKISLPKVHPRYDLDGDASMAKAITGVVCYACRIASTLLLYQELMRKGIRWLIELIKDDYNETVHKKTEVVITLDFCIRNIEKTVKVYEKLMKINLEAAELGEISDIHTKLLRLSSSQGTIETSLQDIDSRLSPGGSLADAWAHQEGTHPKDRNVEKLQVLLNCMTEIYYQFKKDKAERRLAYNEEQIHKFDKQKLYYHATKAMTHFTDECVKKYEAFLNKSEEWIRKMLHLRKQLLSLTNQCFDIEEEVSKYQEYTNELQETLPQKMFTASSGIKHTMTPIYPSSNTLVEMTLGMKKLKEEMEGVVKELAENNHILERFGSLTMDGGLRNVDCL
Summary of the method: as §1

[8] = read-out: % Enzyme Activity (relative to DMSO controls) AVG
[9] = read-out: % Enzyme Activity (relative to DMSO controls) Data 1
[10] = read-out: % Enzyme Activity (relative to DMSO controls) Data 2

T4 sequence (P68400 whole entry): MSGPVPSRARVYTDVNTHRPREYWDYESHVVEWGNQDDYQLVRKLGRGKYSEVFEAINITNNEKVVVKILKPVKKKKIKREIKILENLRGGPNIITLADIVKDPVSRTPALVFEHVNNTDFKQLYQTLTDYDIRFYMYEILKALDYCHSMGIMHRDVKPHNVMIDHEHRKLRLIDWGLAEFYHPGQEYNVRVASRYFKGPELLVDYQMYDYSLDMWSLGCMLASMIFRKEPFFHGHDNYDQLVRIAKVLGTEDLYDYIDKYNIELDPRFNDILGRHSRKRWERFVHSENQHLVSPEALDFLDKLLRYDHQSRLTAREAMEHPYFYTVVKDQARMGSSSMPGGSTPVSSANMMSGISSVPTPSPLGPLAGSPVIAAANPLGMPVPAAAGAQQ
T1 sequence (P07949 29-1114): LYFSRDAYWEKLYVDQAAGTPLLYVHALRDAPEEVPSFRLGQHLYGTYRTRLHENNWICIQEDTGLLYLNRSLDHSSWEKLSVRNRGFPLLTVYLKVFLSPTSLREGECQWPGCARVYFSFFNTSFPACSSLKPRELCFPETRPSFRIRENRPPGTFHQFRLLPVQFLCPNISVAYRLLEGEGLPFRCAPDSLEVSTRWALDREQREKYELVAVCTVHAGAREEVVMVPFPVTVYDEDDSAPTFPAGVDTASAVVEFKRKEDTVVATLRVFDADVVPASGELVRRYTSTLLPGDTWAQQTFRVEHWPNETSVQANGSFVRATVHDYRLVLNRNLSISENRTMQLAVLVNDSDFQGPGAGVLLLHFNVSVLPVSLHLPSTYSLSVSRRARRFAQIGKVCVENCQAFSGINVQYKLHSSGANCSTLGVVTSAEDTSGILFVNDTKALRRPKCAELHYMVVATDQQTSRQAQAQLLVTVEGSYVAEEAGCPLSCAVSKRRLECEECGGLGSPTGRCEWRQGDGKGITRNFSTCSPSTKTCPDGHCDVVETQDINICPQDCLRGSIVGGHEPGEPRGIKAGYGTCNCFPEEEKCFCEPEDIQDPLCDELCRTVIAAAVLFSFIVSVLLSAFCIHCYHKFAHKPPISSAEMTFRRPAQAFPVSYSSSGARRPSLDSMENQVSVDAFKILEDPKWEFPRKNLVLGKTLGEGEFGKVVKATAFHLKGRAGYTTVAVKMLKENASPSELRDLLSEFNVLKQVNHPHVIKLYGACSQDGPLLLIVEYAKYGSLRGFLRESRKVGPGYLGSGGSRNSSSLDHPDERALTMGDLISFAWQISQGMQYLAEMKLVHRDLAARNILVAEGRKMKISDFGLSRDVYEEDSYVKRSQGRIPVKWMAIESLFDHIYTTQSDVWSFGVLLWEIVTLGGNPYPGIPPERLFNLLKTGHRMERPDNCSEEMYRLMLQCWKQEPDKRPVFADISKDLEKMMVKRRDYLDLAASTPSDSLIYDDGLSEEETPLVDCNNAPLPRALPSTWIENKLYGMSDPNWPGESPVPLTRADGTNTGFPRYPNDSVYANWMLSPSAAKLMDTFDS
T2 sequence (Q9HCP0 whole entry): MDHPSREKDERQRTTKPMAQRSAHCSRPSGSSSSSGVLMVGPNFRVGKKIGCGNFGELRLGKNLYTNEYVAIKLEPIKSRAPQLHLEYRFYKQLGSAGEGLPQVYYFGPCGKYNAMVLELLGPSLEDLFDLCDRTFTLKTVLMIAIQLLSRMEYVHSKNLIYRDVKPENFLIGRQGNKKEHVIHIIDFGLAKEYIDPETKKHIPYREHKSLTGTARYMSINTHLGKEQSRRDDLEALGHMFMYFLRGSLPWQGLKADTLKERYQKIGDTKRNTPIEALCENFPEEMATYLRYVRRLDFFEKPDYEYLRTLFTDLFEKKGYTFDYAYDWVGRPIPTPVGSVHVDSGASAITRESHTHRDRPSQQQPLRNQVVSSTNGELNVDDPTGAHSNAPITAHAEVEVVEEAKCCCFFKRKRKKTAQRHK

CC(C)(C)C(=O)N1N=CC[C@H]1c1ccccc1 [GSK′963]
remaining activity at 10 µM [1, 8]: 108% | remaining activity at 10 µM [1, 9]: 107% | remaining activity at 10 µM [1, 10]: 108% | remaining activity at 10 µM [2, 8]: 108% | remaining activity at 10 µM [2, 9]: 111% | remaining activity at 10 µM [2, 10]: 105% | remaining activity at 10 µM [3, 8]: 100% | remaining activity at 10 µM [3, 9]: 99.8% | remaining activity at 10 µM [3, 10]: 101% | remaining activity at 10 µM [4, 8]: 99.4% | remaining activity at 10 µM [4, 9]: 105% | remaining activity at 10 µM [4, 10]: 93.8% | remaining activity at 10 µM [5, 8]: 107% | remaining activity at 10 µM [5, 9]: 106% | remaining activity at 10 µM [5, 10]: 107% | remaining activity at 10 µM [6, 8]: 99.7% | remaining activity at 10 µM [6, 9]: 98.1% | remaining activity at 10 µM [6, 10]: 101% | remaining activity at 10 µM [7, 8]: 86% | remaining activity at 10 µM [7, 9]: 86.8% | remaining activity at 10 µM [7, 10]: 85.3%
